Tested on: PBMCs from HIV-infected HLA-A2-positive subjects
Experiment: IFNγ ELISpot with PBMCs from HIV-infected HLA-A2 subjects
Details: for % donors responding positively in ELISpots: Providence and Mali donors together; for IFNγ ELISpot response, donor H_0912: HLA-A A0201; for IFNγ ELISpot response, donor H_0865: HLA-A A02011; for IFNγ ELISpot response, donor 0015404: A02, A0285, A0286; for IFNγ ELISpot response, donor 0015299 / IFNγ ELISpot response, donor 0018349: A0208; for IFNγ ELISpot response, donor 0015269: A0209, A0231
[1] = cohort #1 Providence, positive donors / 16 donors
[2] = cohort #1 Providence, peptide 10 μg/ml, overnight 37°C
[3] = cohort #3 Bamako, Mali, positive donors / 8 donors
[4] = cohort #3 Bamako, Mali, peptide 10 μg/ml, overnight 37°C

Sequence	IFNγ ELISpot response, stated in words (PBMCs from HIV-1-infected HLA-A2 subjects, Providence and/or Bamako as stated)	% donors responding positively in ELISpots (peptide 10 μg/ml) [%]	Total responses per epitope [1]	IFNγ ELISpot response, donor H_0912 [2]	IFNγ ELISpot response, donor H_0836 (cohort #1 Providence, HLA-A A02011, A2901, peptide 10 μg/ml, overnight 37°C) [spots per 10^6 PBMCs]	IFNγ ELISpot response, donor H_0865 [2]	IFNγ ELISpot response, donor H_0854 (cohort #1 Providence, HLA-A A02011, A3401, peptide 10 μg/ml, overnight 37°C) [spots per 10^6 PBMCs]	Total responses per epitope [3]	IFNγ ELISpot response, donor 0015404 [4] [spots per 10^6 PBMCs]	IFNγ ELISpot response, donor 0015299 [4]	IFNγ ELISpot response, donor 0018349 [4]	IFNγ ELISpot response, donor 0015269 [4]	Subjects with a positive response (cohort #2 Providence, eight subjects) [%]	Total responses per epitope (cohort #2 Providence, positive donors / 8 donors)	IFNγ ELISpot response, donor 0517001 (cohort #2 Providence, A2, A3, B44, Cw05, Cw07, peptide 10 μg/ml, overnight 37°C) [spots per 10^6 PBMCs]	IFNγ ELISpot response, donor 0902991 (cohort #2 Providence, A2, A30, B39, peptide 10 μg/ml, overnight 37°C) [spots per 10^6 PBMCs]
DIQKLVGKL [Peptide 1010]	elicited IFNγ ELISpot responses	6.3	1/16	- (ELISpot responses that fall below this cutoff point are indicated with a dash mark)	64	- (ELISpot responses that fall below this cutoff point are indicated with a dash mark)	–	–	–	–	–	–	–	–	–	–
GIKPVVSTQL [Peptide 1001]	–	20.8	2/16	903 spots per 10^6 PBMCs	–	- (ELISpot responses that fall below this cutoff point are indicated with a dash mark)	75	3/8	111	53 spots per 10^6 PBMCs	37 spots per 10^6 PBMCs	- (ELISpot responses that fall below this cutoff point are indicated with a dash mark)	–	–	–	–
ILKEPVHGVY [Peptide 1249]	–	–	–	–	–	–	–	–	–	–	–	–	37.5	3/8	117	2380
PLQLPPLERL [Peptide 2004]	–	50.0	–	–	–	–	–	4/8	59	36 spots per 10^6 PBMCs	37 spots per 10^6 PBMCs	- (ELISpot responses that fall below this cutoff point are indicated with a dash mark)	–	–	–	–
RLEPWKHPG [Peptide 1017]	–	6.3	1/16	29 spots per 10^6 PBMCs	–	- (ELISpot responses that fall below this cutoff point are indicated with a dash mark)	–	–	–	–	–	–	–	–	–	–
RTLNAWVKV [Peptide 3003]	–	25.0	–	–	–	–	–	2/8	43	- (ELISpot responses that fall below this cutoff point are indicated with a dash mark)	- (ELISpot responses that fall below this cutoff point are indicated with a dash mark)	- (ELISpot responses that fall below this cutoff point are indicated with a dash mark)	–	–	–	–
SAEPVPLQL [Peptide 2003]	–	50.0	–	–	–	–	–	4/8	50	25 spots per 10^6 PBMCs	25 spots per 10^6 PBMCs	- (ELISpot responses that fall below this cutoff point are indicated with a dash mark)	–	–	–	–
WLWYIKIFI [Peptide 3002]	–	12.5	–	–	–	–	–	1/8	63	- (ELISpot responses that fall below this cutoff point are indicated with a dash mark)	- (ELISpot responses that fall below this cutoff point are indicated with a dash mark)	- (ELISpot responses that fall below this cutoff point are indicated with a dash mark)	–	–	–	–

Reference: paper PMC3522424 (Vaccine, 2012)
